Earlier results as cited in US9662322B2 (TEVA PHARMACEUTICAL INDUSTRIES, LTD., priority 2014, dated 2017).

Settings: cited from earlier work

In the case of CCN(C(=O)c1c(O)c2c(Cl)cccc2n(C)c1=O)c1ccccc1 [Laquinimod sodium], the Oral bioavailability is given as “high”.
